Converted amounts (≈) assume the structure as drawn. Like-named read-outs stand apart in the source and are kept apart here.
Columns and labels:
[1] = tested on: CYP3A4; design: method as in PMID 27693678; conditions: fitted using in vivo data; cited from earlier work
[2] = human plasma; cited from earlier work
[3] = Physicochemical and biopharmaceutical properties obtained in-house (PBPK input, experimental data)
Experimental: Simulations were performed using the commercially available PBPK modeling platform GastroPlus 9.8 (Simulations Plus, Inc., Lancaster, CA). Input and final parameters for the model were published by Del Frari et al.[29] […] The fasted, fed, and PPI states were predicted for the encorafenib commercial capsule. All input data for the platform are shown in Table 2 and were based on physicochemical properties of the compound, formulation characteristics and absorption, distribution, metabolism, and excretion properties. […] Related to dissolution, the Johnson model was selected. This model is an extension of the Nernst–Brunner dissolution model and accounts for changing particle radius during dissolution as well as for dissolution of cylindrical particles. […] Gathered information concerning physicochemical and biopharmaceutical properties was obtained in-house. Fasted state physiology in the human GI tract was simulated by selecting the fluid volumes as observed by the magnetic resonance imaging study of Mudie et al.[30] to address biorelevant fluid volumes in the different GI compartments. In the case of the fed state, the stomach transit time was adjusted and optimized to a value of 2.25 h for consistency with the observed PK data, and the physiology was adjusted to fed state conditions (default settings). To simulate PPI conditions, the fasted state physiology was selected (magnetic resonance imaging fluid volumes). However, gastric pH was set to a constant value of pH 7 during the simulation instead of the normal gastric pH of 1.3, as used in the fasted state default settings. […] However, the same results were observed even when the gastric pH was adjusted to a value of 4 or 5 (data not shown).[31] Distribution and clearance parameters were adjusted to reflect a 2-compartmental approach based on the average PK profile of the 100 mg dose as administered in the fasted state to healthy participants (average weight, 83 kg).

[4] = Study 1: food effect clinical study, single oral dose of encorafenib 100 mg, fasted vs high-fat meal, plasma PK and safety; format: in vivo, human; conditions: for AUC(0-inf) / AUC(0-t) / Cmax: GM (GCV%); for half-life: arithmetic mean ± SD; for Vd/F / CL/F: mean ± SD; for Vd/F: read-out: Vz/F; for Tmax: median (range)
Experimental: Both studies were conducted at the Celerion Clinical Research Unit in Lincoln, NE. The trial protocols and informed consent documentation were reviewed and approved by the institutional review boards at the center. These studies were conducted in compliance with the ethical principles originating in or derived from the Declaration of Helsinki and in compliance with all International Council for Harmonization Good Clinical Practice Guideline.
In study 1, participants were randomized to 2 treatment sequences. Participants were either fasted or fed a high-fat meal on day 1 of the first period and received the alternate treatment on day 1 of the second period. Each dose was separated by a washout period of at least 7 days. […] The high-fat breakfast consisted of 2 slices of buttered toast, 2 fried eggs, 2 strips of bacon, 4 oz. of hash brown potatoes, and 240 mL of whole milk. This breakfast met the criteria specified in the FDA guidance for a high-fat meal.[6] […] Water (except water provided with each dosing) was restricted 1 h prior to and 1 h after each study drug administration but was allowed ad libitum at all other times. Participants were housed from day −1 of each period until after the 36 h blood draw and/or study procedures on day 2. Participants returned to the clinical research unit for the 48 and 72 h blood draws.
Additionally, participants were instructed not to crush, split, or chew the study drug.
Serial blood samples for PK were collected in Study 1 predose and at 0.25, 0.5, 1, 1.5, 2, 2.5, 3, 3.5, 4, 5, 6, 8, 10, 12, 24, 36, and 72 h after the day 1 dose in each period.
The actual sample collection times were used for the PK parameter analysis.
The overall safety profile was characterized by laboratory test abnormalities, physical examination, vital signs, ECGs, and AEs. […] Triplicate ECGs were also measured at the end of the studies or upon early termination.
These were back-transformed to obtain the geometric LSMs and ratios of LSMs (geometric mean ratios [GMRs]), and the corresponding 90% CIs of the GMRs, on the original scale.

[5] = PBPK modeling in GastroPlus 9.8 (model parameters and predicted absorption); design: species or system human; conditions: estimated; increased from GastroPlus default value
Experimental: Simulations were performed using the commercially available PBPK modeling platform GastroPlus 9.8 (Simulations Plus, Inc., Lancaster, CA). Input and final parameters for the model were published by Del Frari et al.[29] […] The fasted, fed, and PPI states were predicted for the encorafenib commercial capsule. All input data for the platform are shown in Table 2 and were based on physicochemical properties of the compound, formulation characteristics and absorption, distribution, metabolism, and excretion properties. […] Related to dissolution, the Johnson model was selected. This model is an extension of the Nernst–Brunner dissolution model and accounts for changing particle radius during dissolution as well as for dissolution of cylindrical particles. […] Gathered information concerning physicochemical and biopharmaceutical properties was obtained in-house. Fasted state physiology in the human GI tract was simulated by selecting the fluid volumes as observed by the magnetic resonance imaging study of Mudie et al.[30] to address biorelevant fluid volumes in the different GI compartments. In the case of the fed state, the stomach transit time was adjusted and optimized to a value of 2.25 h for consistency with the observed PK data, and the physiology was adjusted to fed state conditions (default settings). […]

[6] = human, plasma, po, 100 mg, study 1, 100 mg single oral dose, fasted
[7] = human, plasma, po, 100 mg, study 1, 100 mg single oral dose, fed
[8] = study 1, 100 mg single oral dose, fasted
[9] = study 1, 100 mg single oral dose, fed

SMILES: COC(=O)N[C@@H](C)CNc1nccc(-c2cn(C(C)C)nc2-c2cc(Cl)cc(NS(C)(=O)=O)c2F)n1 [encorafenib, Encorafenib]
- gut CYP3A4 Km [1]: 213.9 mg/L
- gut CYP3A4 Vmax [1]: 0.0945 mg/s
- liver CYP3A4 Km [1]: 213.9 mg/L
- liver CYP3A4 Vmax [1]: 0.0945 mg/s
- in vitro protein binding [2]: 86%
- BCS class behavior ([3]; amorphous drug in the capsule formulation (amorphous solid dispersion)): class 1
- solubility ([3]; aqueous buffer, at pH 6.8, experimental data, read-out: reference solubility (amorphous)): 200 µg/mL (≈ 370 µM)
- amorphous solubility higher than crystalline solubility ([3]; at pH 6.8): 20 fold
- logD ([3]; at pH 6.8, experimental data): 1.8
- solubility ([3]; at pH 6.8, experimental data, read-out: reference solubility (crystalline)): 10 µg/mL (≈ 18.5 µM)
- Biopharmaceutics Classification System (BCS) class ([3]; drug substance): class 2
- logP ([3]; experimental data): 2.59
- particle radius ([3]; experimental data, PBPK input): 5 μm
- pKa ([3]; experimental data, read-out: pKa (acid)): 6.97
- pKa ([3]; experimental data, read-out: pKa (base)): 4.53
- AUC(0-inf) [4, 6]: 3120 ng·h/mL
- AUC(0-t) [4, 6]: 3130 ng·h/mL
- Cmax [4, 6]: 962 ng/mL
- half-life [4, 6]: 287 ± 228 min
- Vd/F [4, 6]: 226 ± 207 L
- Tmax ([4]; human, plasma, po, 100 mg, study 1, 100 mg single oral dose, fasted, read-out: Tmax): 1.5 h
- AUC(0-t) [4, 7]: 3020 ng·h/mL
- Cmax [4, 7]: 621 ng/mL
- half-life [4, 7]: 337 ± 221 min
- Vd/F [4, 7]: 262 ± 163 L
- Tmax ([4]; human, plasma, po, 100 mg, study 1, 100 mg single oral dose, fed, read-out: Tmax): 3.5 h
- AUC(0-inf) ([4]; human, plasma, po, 100 mg, study 1, encorafenib 100 mg single oral dose, fed (high-fat meal)): 3030 ng·h/mL
- tolerability ([4]; single oral dose of 100 mg, healthy participants): tolerated
- changes in vital signs, laboratory values, or ECG measurements ([4]; study 1): No clinically significant changes
- participants reporting headache ([4]; study 1): 73%
- participants who discontinued due to an AE related to encorafenib ([4]; study 1): 2 participants
- severity of AEs ([4]; study 1): all mild in severity
- CL/F [4, 8]: 34.64 ± 14.209 L/h
- Tmax [4, 8]: 1.495 (0.997, 3.49) h
- CL/F [4, 9]: 35.13 ± 12.535 L/h
- Tmax [4, 9]: 3.499 (2.00, 5.00) h
- delay of median Tmax under fed conditions ([4]; study 1, fed vs fasted): 2 h
- Cmax lower in fed state than fasted ([4]; study 1, fed vs fasted, 100 mg): 36%
- decrease in AUCinf with a high-fat meal ([4]; study 1, fed vs fasted, 100 mg): 4%
- decrease in AUClast with a high-fat meal ([4]; study 1, fed vs fasted, 100 mg): 4%
- participants reporting AEs ([4]; study 1, following encorafenib in the fasted state): 79%
- participants reporting AEs ([4]; study 1, following encorafenib in the fed state): 92%
- participants reporting flushing ([4]; study 1, most common AE): 83%
- participants who discontinued due to AEs ([4]; study 1, of 40 participants who entered): 6 participants
- participants reporting AEs ([4]; study 1, overall): 95%
- mean precipitation time [5]: 90000 s

— PMC10155203 (Molecular Pharmaceutics, 2023)
